Entries after “also recorded” stand apart in the source; their conditions may differ. Non-standard residues stand in square brackets, D forms with d. No end group written: not given here. dPhe(F5) = N[C@H](Cc1c(F)c(F)c(F)c(F)c1F)C(=O)O; dBpa = N[C@H](Cc1ccc(C(=O)c2ccccc2)cc1)C(=O)O; dCha = N[C@H](CC1CCCCC1)C(=O)O
Legend:
HCT-116 cells = test: In vitro sensitivity test: DNA content of cells by flow cytometry; format: cell-based, human; settings: for change in DNA content (cell cycle distribution) of HCT-116 cells: compound alone, 2, 10, or 50 μM for 3 hr
Procedure: Cells from a human colon cancer derived cell line HCT-116 were used in an in vitro sensitivity test that measures DNA content of cells by flow cytometry, and in an in vivo efficacy test that measures xenograft tumor growth. The effects of conventional anti-cancer therapy CPT-11, novel candidate anti-cancer therapy CBDC402, a combination of the two compounds, or control treatments (vehicle), were measured in each test system and compared.
In vitro sensitivity test: HCT-116 cells (from ATCC) were cultured in McCOY5A medium (Sigma Chemical Co.) with L-glutamine (Sigma Chemical Co.), penicillin-streptomycin, and 10% fetal calf serum at 37° C. in 5% CO2/air. Cultured cells (at 1.6×10^5) were pelleted by centrifugation, and then re-suspended and incubated in 300 μl Krishan's solution (0.1% sodium citrate, 50 μg/ml propidium iodide, 20 μg/ml RNase A, 0.5% Nonidet P-40) for 1 h at 4° C. The quantity of DNA in each cell was determined using a fluorescence activated cell scanner (FACScan® Beckton Dickinson, Mountain View, Calif.), and results were analyzed using CELLQuest® software (Beckton Dickinson).
The DNA content of each cell was measured at 24 hr.
In vitro sensitivity test: The in vitro sensitivity test using HCT-116 cells and flow cytometry was carried out as described above, with the modification that CBDC004 was used instead of CBDC402. The DNA content of each cell was measured at 24 hr.

HCT-116 xenografts = test: Surrogate in vivo efficacy test: HCT-116 xenograft tumor assay; set-up: species or system SCID mice; settings: for HCT-116 xenograft tumor growth, combination: intraperitoneal, two weeks
Procedure: HCT-116 cells were implanted by subcutaneous injection of the cells into male SCID mice (Severe Combined Immunodeficient mice, Charles River Lab., Wilmington, Mass.). Treatment was initiated when the tumor size reached about 0.2 cm^3 in size. The size of tumors was measured three times per week, using calipers. Tumor volumes were calculated as follows: volume (cm^3)=[width (mm)^2×length (mm)]/2000. Mean tumor sizes (volumes) with standard deviation were plotted (FIG. 1b). Animals were housed in accordance with guidelines from American Association for Laboratory Animal Care and the protocols were approved by institutional animal care committee of CanBas Co. Ltd
Established HCT-116 xenografts (0.2 cm^3) in SCID mice were treated for two weeks by intraperitoneal injection of the following: vehicle alone (DMSO, two times per week), CBDC402 (40 mg/kg; two times per week), CPT-11 (20 mg/kg; one time per week) or the combination of CBDC402 (two times per week) and CPT-11 (one time per week). […] The results correlate with the prediction based on results from the in vitro sensitivity test using CBDC004 as described above.
Surrogate in vivo efficacy test: A surrogate in vivo efficacy test measuring the effects of various compounds on HCT-116 xenograft tumor growth was carried out as described above, with the modification that CBDC004 was used instead of CBDC402.
Established HCT-116 xenografts (0.2 cm^3) in SCID mice were treated for two weeks by intraperitoneal injection of the following: vehicle alone (DMSO, two times per week), CBDC004 (30 mg/kg; three times per week), CPT-11 (20 mg/kg; one time per week) or the combination of […] (two times per week) and CPT-11 (one time per week). […] The results correlate with the prediction based on results from the in vitro sensitivity test using CBDC004 as described above.

[1] = test system: MIAPaCa2 cells xenograft tumors; test: Surrogate in vivo efficacy test: MIAPaCa2 xenograft tumor assay; set-up: species or system SCID mice
Procedure: Surrogate in vivo efficacy test: A surrogate in vivo efficacy test using the xenograft tumor assay was carried out as described above, with modifications. MIAPaCa2 cells (n=5) were implanted by subcutaneous injection of the cells to male SCID mice (Charles River Lab., Wilmington, Mass.). Treatment was initiated when tumor size reached about 0.15 cm^3 in size. The size of tumors was measured three times per week, using calipers. Tumor volumes were calculated as follows: volume (cm^3)=[width (mm)^2×length (mm)]/2000. Mean tumor sizes (volumes) with standard deviation were plotted (FIG. 1b). Animals were housed in accordance with guidelines from American Association for Laboratory Animal Care and the protocols were approved by institutional animal care committee of CanBas Co. Ltd.
Established […] xenografts (0.2 cm^3) in SCID mice were treated two times each week for two weeks (i.e., on day 1, 5, 8, and 12) by intraperitoneal injection of the following: vehicle alone (DMSO); CBP501 (120 mg/m^2); cisplatin (CDDP, 3 mg/kg); a combination of CBP501 (30 mg/m^2) and cisplatin (CDDP, 3 mg/kg); a combination of CBP501 (60 mg/m^2) and cisplatin (CDDP, 3 mg/kg); or CBP501 (120 mg/m^2) and cisplatin (CDDP, 3 mg/kg).

MIAPaCa2 cells = test: In vitro sensitivity test: laser scanning cytometry of cultured xenograft tumor cells on chamber slides; settings: for anti-cancer efficacy in vitro, human cancerous cells in culture: each compound alone (summary of Example 3)
Procedure: As a simulation of the sensitivity test for the clinical situation, established xenograft tumors of MIAPaCa2 cells in SCID mice were extracted from the mice and cultured in vitro in the presence or absence of a conventional anti-cancer therapy and a novel candidate anti-cancer therapy CBP501 (SEQ ID NO: 26), according to the protocol as follows.
Xenograft tumors of MIAPaCa2 cells were excised from xenograft tumor bearing mice and place in a 10 cm plate with 10 ml of complete culture medium (DMEM (Dainihonseiyaku Co., Osaka, Japan) with 2.5% horse serum (Invitrogen Co., Carlsbad, Calif.) for MIAPaCa2 with 10% fetal calf serum (Equitech-bio, Kerrville, Tex.) at 37° C. with 5% CO2/air). The tissue was sliced into small pieces and non-tumor tissue was removed to the extent possible. The sliced pieces were placed in another 10 cm plate with complete culture medium and minced with a razor blade. The cells were then dispersed in culture medium by pipetting, and centrifuged for 5 min at 1200×g.
The cell pellet was then incubated in buffer containing collagenase for 2 hours at 37° C. After centrifuging a second time, the cell pellet was incubated in buffer containing trypsin for 5 min at room temperature, then suspended in the culture medium, passed through nylon mesh, and re-centrifuged. Pelleted cells were resuspended and the resuspended cells were seeded onto chamber slides and cultured overnight in an incubator.
Cells in chamber slides were treated with anti-cancer therapies or control treatments as follows: control solution, CBP501 (SEQ ID NO: 26) at 10 μM, cisplatin (CDDP) at 10 μg/ml, or a combination of CBP501 and cisplatin were added to chamber slides and incubated for 3 hours. Culture medium was changed and chamber slides were cultured for an additional 24 to 48 hours.
At the beginning of the designated day (day 3, 4, or 5), medium was aspirated from chamber slides and cells were fixed by addition of 70% ethanol followed by incubation for 15 minutes at room temperature. The supernatant was discarded, and phosphate buffered saline with 50 μg/ml propidium iodide (Sigma, St. Louis, Mo.) with 0.1% RNase (Sigma) was added to the slides and incubated for 30 minutes at room temperature. Cells on the chamber slides were then analyzed by Laser Scanning Cytomery (LSC® System, with Olympus microscope).

[2] = compound 2, 10, 50 μM for 3 hr in combination with CPT-11 50 μM for 3 hr, measured at 24 hr
[3] = CPT-11 alone, 50 μM for 3 h, DNA content measured at 24 hr
[4] = CBP501 10 μM combined with cisplatin 10 μg/ml, 3 hours, then cultured 24 to 48 hours

Compound: COc1ccc(OC(=O)c2ccc(Cl)cc2)cc1 [CBDC004, 4-Chloro-benzoic acid 4-methoxy-phenyl ester]
- change in DNA content / G2/M and G1 populations of HCT-116 cells, combination treatment (HCT-116 cells; [2]): did not change the DNA content more than CPT-11 alone
- change in DNA content (cell cycle distribution) of HCT-116 cells (HCT-116 cells; DNA content measured at 24 hr): did not alter the DNA content
- HCT-116 xenograft tumor growth (HCT-116 xenografts; CBDC004 alone, 30 mg/kg intraperitoneal, three times per week for two weeks): did not suppress tumor growth
- HCT-116 xenograft tumor growth, combination (HCT-116 xenografts; CBDC004 in combination with CPT-11 (one time per week)): did not suppress tumor growth

Compound: Cc1ccc(OC(=O)c2ccc(Br)cc2)cc1 [CBDC402, 4-Bromo-benzoic acid p-tolyl ester]
- change in DNA content / G2/M and G1 populations of HCT-116 cells, combination treatment (HCT-116 cells; [2]): decrease in the accumulation of both the CPT-11-induced G2/M population and G1 population
- subG1 (dead cell) population of HCT-116 cells, combination treatment (HCT-116 cells; [2]): increase in the subG1 (dead cell) population
- change in DNA content (cell cycle distribution) of HCT-116 cells (HCT-116 cells; DNA content measured at 24 hr): did not alter the DNA content
- HCT-116 xenograft tumor growth, combination (HCT-116 xenografts; CBDC402 (two times per week) plus CPT-11 (one time per week)): strong tumor suppressive activity
- HCT-116 xenograft tumor growth (HCT-116 xenografts; CBDC402 alone, 40 mg/kg intraperitoneal, two times per week for two weeks): did not suppress tumor growth significantly

Compound: N.N.[Cl][Pt][Cl] [cisplatin, reference compound]
- xenograft tumor growth ([1]; cisplatin alone, 3 mg/kg intraperitoneal, two times each week for two weeks): little or no effect on tumor growth
- change in cell cycle distribution of cultured MIAPaCa2 xenograft tumor cells (MIAPaCa2 cells; cisplatin alone, 10 μg/ml for 3 hours, then cultured 24 to 48 hours): accumulation of cells in G2/M phase
- anti-cancer efficacy in vitro, human cancerous cells in culture (MIAPaCa2 cells): some anti-cancer efficacy

Compound: CCc1c2c(nc3ccc(OC(=O)N4CCC(N5CCCCC5)CC4)cc13)-c1cc3c(c(=O)n1C2)COC(=O)[C@]3(O)CC [CPT-11, irinotecan, reference compound]
- change in cell cycle distribution (G1, G2/M populations) of HCT-116 cells (HCT-116 cells; [3]): changed the cell cycle distribution dramatically
- sub-G1 (dead cell) population of HCT-116 cells (HCT-116 cells; [3]): no increase in the sub-G1 population
- HCT-116 xenograft tumor growth (HCT-116 xenografts; CPT-11 alone, 20 mg/kg intraperitoneal, one time per week for two weeks): moderate tumor suppressive activity

Compound: (d-Bpa)(d-Ser)(d-Trp)(d-Ser)(d-Phe-2,3,4,5,6-F)(d-Cha)(d-Arg)(d-Arg)(d-Arg)(d-Gln)(d-Arg)(d-Arg) ([dBpa][dS][dW][dS][dPhe(F5)][dCha][dR][dR][dR][dQ][dR][dR]) [CBP501]
- xenograft tumor growth, combination ([1]; CBP501 (30, 60 or 120 mg/m^2) combined with cisplatin 3 mg/kg, intraperitoneal, two times each week for two weeks): more effective than either compound alone; also recorded: significant inhibition of xenograft tumor growth
- xenograft tumor growth ([1]; CBP501 alone, 120 mg/m^2 intraperitoneal, two times each week for two weeks (day 1, 5, 8, 12)): little or no effect on tumor growth; also recorded: did not significantly inhibit xenograft tumor growth
- G1 and G2/M peaks of cultured MIAPaCa2 xenograft tumor cells, combination (MIAPaCa2 cells; [4]): dramatically decreased both the G1 and G2/M peaks
- sub-G1 population of cultured MIAPaCa2 xenograft tumor cells, combination (MIAPaCa2 cells; [4]): increased the sub-G1 population
- change in cell cycle distribution of cultured MIAPaCa2 xenograft tumor cells (MIAPaCa2 cells; CBP501 alone, 10 μM for 3 hours, then cultured 24 to 48 hours): cell cycle distribution was not significantly altered
- cell death in the population of tumor cells by direct observation of cell morphology, combination (MIAPaCa2 cells; CBP501 combined with cisplatin): dramatic increase in cell death
- anti-cancer effect in vitro, human cancerous cells in culture, combination (MIAPaCa2 cells; CBP501 combined with cisplatin (summary of Example 3)): more pronounced anti-cancer effect
- anti-cancer efficacy in vitro, human cancerous cells in culture (MIAPaCa2 cells): some anti-cancer efficacy

— patent publication US7358046B2, “Sensitivity test to predict efficacy of anti-cancer therapies” (Canbas Co., Ltd., priority 2003, dated 2008)
